In patent publication US10167257B2, “Indole derivatives for use in medicine” (IOmet Pharma Ltd., priority 2014, dated 2019):

Key:
[1] = target: T1, TDO (A172 cells) (Homo sapiens, UniProt P48775); assay: TDO cell-based assay (A172), kynurenine production; details: A172 human glioblastoma cells, 500 μM L-Trp, 48 h, kynurenine by absorbance at 490 nm
T1 construct: This assay utilised cancer cells which expressed either TDO or IDO; host or cells: A172 human glioblastoma cells
From the text: (§1) Two different types of assay were employed: 1. A TDO and IDO biochemical coupled assay which utilised recombinantly produced and purified TDO and IDO enzymes in combination with the enzyme formamidase. This coupled enzyme system allowed conversion of N-formylkynurenine produced by TDO or IDO activity to kynurenine which was then quantified by fluorescence following addition of Erhlich's Reagent. 2. A cell-based assay for detecting the effect of test compounds on kynurenine production in two different cancer cell types. This assay utilised cancer cells which expressed either TDO or IDO and as such was used as a means of testing compound activity at these two enzymes in a cell-based context. The protocols for these are set out below.
(§2) A172 human glioblastoma (ATCC) were grown in DMEM+2 mM L-glutamine medium supplemented with 10% foetal bovine serum and SKOV-3 ovary adenocarcinoma (ATCC) cells were grown in McCoys 5A+L-glutamax medium supplemented with 15% foetal bovine serum. On the day of assay, cells were detached using trypsin-EDTA (0.25% v/v), re-suspended in assay media (RPMI 1640 phenol red free+L-glutamine supplemented with 10% dialysed foetal bovine serum). A172 cells were seeded at 30K cells per well and SKOV-3 cells at 40K cells per well into 96-well plates containing test samples/vehicle control together with 500 μM L-Trp. Cells were then incubated for 48 h at 37° C., 5% CO2. In SK-OV-3 cells, IFNγ was also added at 500 ng/ml for the 48 h incubation in order to induce expression of IDO. Plates were centrifuged and the supernatant was removed and incubated for 5 min in the presence of 1% Erhlich's reagent. Kynurenine levels were then quantified by measuring absorbance at 490 nm.

[2] = target: T2, IDO (SKOV-3 cells) (Homo sapiens, UniProt P14902); assay: IDO cell-based assay (SKOV-3, IFNγ-induced), kynurenine production; details: SKOV-3 ovary adenocarcinoma cells, IFNγ 500 ng/ml, 500 μM L-Trp, 48 h, kynurenine by absorbance at 490 nm
T2 construct: This assay utilised cancer cells which expressed either TDO or IDO; host or cells: SKOV-3 ovary adenocarcinoma cells, IFNγ-induced
T2 sequence (P14902 whole entry): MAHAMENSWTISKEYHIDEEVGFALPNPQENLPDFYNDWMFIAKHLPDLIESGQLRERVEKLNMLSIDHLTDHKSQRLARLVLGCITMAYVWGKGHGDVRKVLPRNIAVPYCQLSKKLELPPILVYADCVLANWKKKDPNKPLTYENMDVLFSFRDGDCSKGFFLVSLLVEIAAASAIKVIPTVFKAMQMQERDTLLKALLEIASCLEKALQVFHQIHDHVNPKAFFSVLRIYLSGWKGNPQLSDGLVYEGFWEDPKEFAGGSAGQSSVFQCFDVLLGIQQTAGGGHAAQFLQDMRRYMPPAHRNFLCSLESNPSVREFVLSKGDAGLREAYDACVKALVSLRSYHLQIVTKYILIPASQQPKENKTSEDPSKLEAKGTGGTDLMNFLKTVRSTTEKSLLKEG
From the text: as §1, §2

T1 sequence (P48775 whole entry): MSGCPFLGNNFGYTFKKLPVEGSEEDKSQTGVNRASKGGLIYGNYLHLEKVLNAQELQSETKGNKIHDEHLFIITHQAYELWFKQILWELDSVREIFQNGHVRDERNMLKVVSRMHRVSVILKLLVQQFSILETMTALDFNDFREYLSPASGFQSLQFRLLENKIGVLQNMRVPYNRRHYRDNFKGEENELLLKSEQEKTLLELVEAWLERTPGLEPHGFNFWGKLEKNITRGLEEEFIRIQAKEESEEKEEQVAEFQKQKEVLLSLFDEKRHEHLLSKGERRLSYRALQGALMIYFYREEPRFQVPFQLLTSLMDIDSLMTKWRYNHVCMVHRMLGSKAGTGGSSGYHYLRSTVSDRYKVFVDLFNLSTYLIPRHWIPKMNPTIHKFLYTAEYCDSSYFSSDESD

SMILES	TDO cellular assay (A172) pIC50 [1]	IDO cellular assay (SKOV3) pIC50 [2]
O=C(Nc1cccc2[nH]ncc12)c1cc2cc(F)ccc2[nH]1 [Compound 1]	− (− = pIC50 <4.50)	++ (++ = pIC50 5.00-<5.50)
O=C(Nc1cccc2cnccc12)c1cc2ccc(F)cc2[nH]1 [Compound 2]	− (− = pIC50 <4.50)	++ (++ = pIC50 5.00-<5.50)
COc1ccc2cc(C(=O)Nc3cccc4ccccc34)[nH]c2c1 [Compound 3]	− (− = pIC50 <4.50)	+++ (+++ = pIC50 ≥5.50)
CC(NC(=O)c1cc2cc(F)ccc2[nH]1)c1ccccc1 (centres unmarked) [Compound 4]	+ (+ = pIC50 4.50-<5.00)	++ (++ = pIC50 5.00-<5.50)
O=C(NCc1ccncc1)c1cc2cc(Cl)ccc2[nH]1 [Compound 5]	− (− = pIC50 <4.50)	+ (+ = pIC50 4.50-<5.00)
O=C(NC1CCc2ccccc21)c1cc2ccccc2[nH]1 (centres unmarked) [Compound 6]	+ (+ = pIC50 4.50-<5.00)	+ (+ = pIC50 4.50-<5.00)
COc1ccc2cc(C(=O)Nc3cccc4ncccc34)[nH]c2c1 [Compound 7]	− (− = pIC50 <4.50)	+++ (+++ = pIC50 ≥5.50)
CN(C)c1ncc2c(n1)CCC[C@H]2NC(=O)c1cc2cc(F)ccc2[nH]1 [Compound 8]	− (− = pIC50 <4.50)	+ (+ = pIC50 4.50-<5.00)
O=C(NCc1ccc(Cl)cc1)c1cc2ccccc2[nH]1 [Compound 9]	− (− = pIC50 <4.50)	+++ (+++ = pIC50 ≥5.50)
O=C(NCc1ccccc1)c1cc2ccccc2[nH]1 [Compound 10]	+ (+ = pIC50 4.50-<5.00)	− (− = pIC50 <4.50)
Cc1ccc(C(C)NC(=O)c2cc3ccccc3[nH]2)o1 (centres unmarked) [Compound 11]	++ (++ = pIC50 5.00-<5.50)	++ (++ = pIC50 5.00-<5.50)
O=C(NC(c1ccccc1)C1CC1)c1cc2c(F)cccc2[nH]1 (centres unmarked) [Compound 12]	− (− = pIC50 <4.50)	+++ (+++ = pIC50 ≥5.50)
O=C(NCc1cccs1)c1cc2ccccc2[nH]1 [Compound 13]	− (− = pIC50 <4.50)	+ (+ = pIC50 4.50-<5.00)
CC(NC(=O)c1cc2ccccc2[nH]1)c1cccc(Cl)c1 (centres unmarked) [Compound 14]	− (− = pIC50 <4.50)	++ (++ = pIC50 5.00-<5.50)
Cc1ccc2[nH]c(C(=O)NC(C)c3cccc(F)c3)cc2c1 (centres unmarked) [Compound 15]	++ (++ = pIC50 5.00-<5.50)	+++ (+++ = pIC50 ≥5.50)
CC(NC(=O)c1cc2ccccc2[nH]1)c1ccc(Cl)cc1 (centres unmarked) [Compound 16]	+ (+ = pIC50 4.50-<5.00)	+++ (+++ = pIC50 ≥5.50)
CC(NC(=O)c1cc2ccccc2[nH]1)c1ccccc1 (centres unmarked) [Compound 17]	+ (+ = pIC50 4.50-<5.00)	+++ (+++ = pIC50 ≥5.50)
COc1ccc(C(NC(=O)c2cc3ccccc3[nH]2)C2CC2)cc1 (centres unmarked) [Compound 18]	− (− = pIC50 <4.50)	+++ (+++ = pIC50 ≥5.50)
CC(NC(=O)c1cc2ccccc2[nH]1)c1ccc(C(F)(F)F)cc1 (centres unmarked) [Compound 19]	− (− = pIC50 <4.50)	+++ (+++ = pIC50 ≥5.50)
Cc1cc(C)c2cc(C(=O)NCc3ccc(C)n3C)[nH]c2c1 [Compound 20]	− (− = pIC50 <4.50)	+ (+ = pIC50 4.50-<5.00)
CC(NC(=O)c1cc2c(Cl)c(Cl)ccc2[nH]1)c1cccnc1 (centres unmarked) [Compound 21]	− (− = pIC50 <4.50)	++ (++ = pIC50 5.00-<5.50)
CC(NC(=O)c1cc2cc(F)ccc2[nH]1)c1cccc(F)c1 (centres unmarked) [Compound 22]	+ (+ = pIC50 4.50-<5.00)	++ (++ = pIC50 5.00-<5.50)
CC(C)C(NC(=O)c1cc2cc(F)ccc2[nH]1)c1cccs1 (centres unmarked) [Compound 23]	− (− = pIC50 <4.50)	+++ (+++ = pIC50 ≥5.50)

SMILES	TDO cellular assay (A172) pIC50 [1]	IDO cellular assay (SKOV3) pIC50 [2]
Cc1ccc(C(C)NC(=O)c2cc3cc(F)ccc3[nH]2)o1 (centres unmarked) [Compound 24]	+ (+ = pIC50 4.50-<5.00)	++ (++ = pIC50 5.00-<5.50)
CC(NC(=O)c1cc2cc(Cl)ccc2[nH]1)c1ccccc1 (centres unmarked) [Compound 25]	+++ (+++ = pIC50 ≥5.50)	+++ (+++ = pIC50 ≥5.50)
Cc1ccc2[nH]c(C(=O)NC(C)c3ccccc3)cc2c1 (centres unmarked) [Compound 26]	++ (++ = pIC50 5.00-<5.50)	+++ (+++ = pIC50 ≥5.50)
Cc1ccc2[nH]c(C(=O)NCc3ccc(F)cc3)cc2c1 [Compound 27]	− (− = pIC50 <4.50)	++ (++ = pIC50 5.00-<5.50)
O=C(NCc1ccc(F)cc1)c1cc2cc(Cl)ccc2[nH]1 [Compound 28]	− (− = pIC50 <4.50)	+ (+ = pIC50 4.50-<5.00)
COc1ccc(CNC(=O)c2cc3cc(F)ccc3[nH]2)cc1 [Compound 29]	− (− = pIC50 <4.50)	+ (+ = pIC50 4.50-<5.00)
O=C(NCc1cccc(Cl)c1)c1cc2ccccc2[nH]1 [Compound 30]	− (− = pIC50 <4.50)	+ (+ = pIC50 4.50-<5.00)
O=C(NCc1ccc(F)cc1Cl)c1cc2ccccc2[nH]1 [Compound 31]	− (− = pIC50 <4.50)	+ (+ = pIC50 4.50-<5.00)
O=C(NCc1ccc(F)c(Cl)c1)c1cc2ccccc2[nH]1 [Compound 32]	− (− = pIC50 <4.50)	++ (++ = pIC50 5.00-<5.50)
O=C(NCc1cccc(Cl)c1)c1cc2cc(Cl)ccc2[nH]1 [Compound 33]	− (− = pIC50 <4.50)	++ (++ = pIC50 5.00-<5.50)
O=C(NCc1ccc(Cl)cc1)c1cc2cc(Cl)ccc2[nH]1 [Compound 34]	− (− = pIC50 <4.50)	+++ (+++ = pIC50 ≥5.50)
O=C(NCc1ccc(F)c(Cl)c1)c1cc2cc(Cl)ccc2[nH]1 [Compound 35]	− (− = pIC50 <4.50)	+ (+ = pIC50 4.50-<5.00)
CC(NC(=O)c1cc2cc(Cl)ccc2[nH]1)c1ccc(F)cc1 (centres unmarked) [Compound 36]	+ (+ = pIC50 4.50-<5.00)	+++ (+++ = pIC50 ≥5.50)
CC(NC(=O)c1cc2ccccc2[nH]1)c1ccccn1 (centres unmarked) [Compound 37]	− (− = pIC50 <4.50)	+ (+ = pIC50 4.50-<5.00)
Cc1c(C(=O)N[C@H](C)c2ccccc2)[nH]c2ccc(F)cc12 [Compound 38]	+ (+ = pIC50 4.50-<5.00)	++ (++ = pIC50 5.00-<5.50)
C[C@H](c1ccccc1)N(C)C(=O)c1cc2cc(F)ccc2[nH]1 [Compound 39]	− (− = pIC50 <4.50)	++ (++ = pIC50 5.00-<5.50)
C[C@H](NC(=O)c1cc2cc(F)ccc2[nH]1)c1ccccc1 [Compound 40]	++ (++ = pIC50 5.00-<5.50)	+ (+ = pIC50 4.50-<5.00)
O=C(Nc1cccc2ncccc12)c1cc2cc(F)ccc2[nH]1 [Compound 41]	− (− = pIC50 <4.50)	+++ (+++ = pIC50 ≥5.50)
CC(NC(=O)c1cc2cc(F)ccc2[nH]1)c1ccccn1 (centres unmarked) [Compound 42]	− (− = pIC50 <4.50)	++ (++ = pIC50 5.00-<5.50)
C[C@@H](NC(=O)c1cc2cc(F)ccc2[nH]1)c1ccccc1 [Compound 43]	++ (++ = pIC50 5.00-<5.50)	+++ (+++ = pIC50 ≥5.50)
C[C@@H](NC(=O)c1cc2ccc(F)cc2[nH]1)c1ccccc1 [Compound 44]	+ (+ = pIC50 4.50-<5.00)	+++ (+++ = pIC50 ≥5.50)
C[C@H](NC(=O)c1cc2ccc(F)cc2[nH]1)c1ccccc1 [Compound 45]	− (− = pIC50 <4.50)	+ (+ = pIC50 4.50-<5.00)
C[C@@H](NC(=O)c1cc2cc(F)ccc2n1C)c1ccccc1 [Compound 46]	− (− = pIC50 <4.50)	++ (++ = pIC50 5.00-<5.50)
